Where no end group is shown, it is not given here. [ ]: non-standard residue; d: D form. Arg(Me2a) = CN(C)C(=N)NCCC[C@H](N)C(=O)O; pS = N[C@@H](COP(=O)(O)O)C(=O)O
Tests used:
Assay in all cases: Histone peptide microarray
Assay type in all cases: binding, human
[1] = tested on: CHD4 (PPCC); conditions: CHD4 (PPCC), GST-tagged; arrays performed twice, n of 4
Source text: (§1) To more comprehensively define the histone interactions of the 31 PHD readers identified from the domain microarray analyses, we probed each on an alternate microarray platform containing a library of 293 synthetic histone peptides with single or combinatorial PTMs (Additional file 2: Figure S4 and Additional file 3: Table S2).
(§2) The 31 GST-tagged PHD readers identified in the PHD finger domain array were expressed and purified as previously. Histone peptide arrays and peptide pulldown assays were conducted as recently described (specifically, the optimized protocol from Petell et al. for the former).
(§3) Supplementary file 13072_2020_328_MOESM3_ESM.xlsx: Additional file 3: Table S2. […] Excel Tab Peptide List is a compiled list of the entire 293 histone peptide library with amino acid sequence ranges. […] Each number corresponds to the peptide number designated in Peptide List. Excel Tab Average Signals is a compiled set of binding data: chromatin reader at 0.5 μM vs. entire 293 peptide library. Data is presented as the average and standard deviation of 4 replicates. The average signals are colored to indicate signal intensity with green being strong and white being weak/low. […] Key: red= stronger relative binding; blue = weaker relative binding. Excel Tab Array info summary is a table summarizing the domains, sequence coverage, array signal range, and noise for each of the GST-tagged readers assayed on the peptide microarrays.

[2] = tested on: ING4; conditions: ING4, GST-tagged; arrays performed twice, n of 4
Source text: as §1, §2, §3

[3] = tested on: KDM7A; conditions: KDM7A, GST-tagged; arrays performed twice, n of 4
Source text: as §1, §2, §3

[4] = tested on: ING1; conditions: ING1, GST-tagged; arrays performed twice, n of 4
Source text: as §1, §2, §3

[5] = tested on: PHF8; conditions: PHF8, GST-tagged; arrays performed twice, n of 4
Source text: as §1, §2, §3

[6] = tested on: PHF21A; conditions: PHF21A, GST-tagged; arrays performed twice, n of 4
Source text: as §1, §2, §3

[7] = tested on: ING5; conditions: ING5, GST-tagged; arrays performed twice, n of 4
Source text: as §1, §2, §3

[8] = tested on: KDM5A (3); conditions: KDM5A (3), GST-tagged; arrays performed twice, n of 4
Source text: as §1, §2, §3

[9] = tested on: ING2; conditions: ING2, GST-tagged; arrays performed twice, n of 4
Source text: as §1, §2, §3

[10] = tested on: BPTF (PB); conditions: BPTF (PB), GST-tagged; arrays performed twice, n of 4
Source text: as §1, §2, §3

[11] = tested on: MORC3 (CW); conditions: MORC3 (CW), GST-tagged; arrays performed twice, n of 4
Source text: as §1, §2, §3

[12] = tested on: CHD5 (PCC); conditions: CHD5 (PCC), GST-tagged; arrays performed twice, n of 4
Source text: as §1, §2, §3

[13] = tested on: KDM5B (1); conditions: KDM5B (1), GST-tagged; arrays performed twice, n of 4
Source text: as §1, §2, §3

[14] = tested on: KDM4C (TTP); conditions: KDM4C (TTP), GST-tagged; arrays performed twice, n of 4
Source text: as §1, §2, §3

[15] = tested on: ING3; conditions: ING3, GST-tagged; arrays performed twice, n of 4
Source text: as §1, §2, §3

[16] = tested on: RAG2; conditions: RAG2, GST-tagged; arrays performed twice, n of 4
Source text: as §1, §2, §3

[17] = tested on: BAZ2B; conditions: BAZ2B, GST-tagged; arrays performed twice, n of 4
Source text: as §1, §2, §3

[18] = tested on: DPF2 (PPC2W2); conditions: DPF2 (PPC2W2), GST-tagged; arrays performed twice, n of 4
Source text: as §1, §2, §3

[19] = tested on: AIRE (PP); conditions: AIRE (PP), GST-tagged; arrays performed twice, n of 4
Source text: as §1, §2, §3

[20] = tested on: PHF13; conditions: PHF13, GST-tagged; arrays performed twice, n of 4
Source text: as §1, §2, §3

[21] = tested on: PHF23; conditions: PHF23, GST-tagged; arrays performed twice, n of 4
Source text: as §1, §2, §3

[22] = tested on: TAF3; conditions: TAF3, GST-tagged; arrays performed twice, n of 4
Source text: as §1, §2, §3

[23] = tested on: CHD5 (PPCC); conditions: CHD5 (PPCC), GST-tagged; arrays performed twice, n of 4
Source text: as §1, §2, §3

[24] = tested on: PHF2; conditions: PHF2, GST-tagged; arrays performed twice, n of 4
Source text: as §1, §2, §3

[25] = tested on: SP140L; conditions: SP140L, GST-tagged; arrays performed twice, n of 4
Source text: as §1, §2, §3

[26] = tested on: TRIM66 (PB); conditions: TRIM66 (PB), GST-tagged; arrays performed twice, n of 4
Source text: as §1, §2, §3

[27] = tested on: PHRF1 (RP); conditions: PHRF1 (RP), GST-tagged; arrays performed twice, n of 4
Source text: as §1, §2, §3

[28] = tested on: MLL5; conditions: MLL5, GST-tagged; arrays performed twice, n of 4
Source text: as §1, §2, §3

[29] = tested on: KDM5B (3); conditions: KDM5B (3), GST-tagged; arrays performed twice, n of 4
Source text: as §1, §2, §3

[30] = tested on: DIDO1; conditions: DIDO1, GST-tagged; arrays performed twice, n of 4
Source text: as §1, §2, §3

[31] = tested on: KDM5A (1); conditions: KDM5A (1), GST-tagged; arrays performed twice, n of 4
Source text: as §1, §2, §3

Substance: H2AR3me2a + K5ac: H2A 1-17 (SG[Arg(Me2a)]GK(Ac)QGGKARAKAKTR; UniProt P0C0S8 2-18, looked up, fragment)
- Array Heatmap value (peptide array binding signal) [1]: 0.5411
- Array Heatmap value (peptide array binding signal) [2]: 0.4409
- Array Heatmap value (peptide array binding signal) [3]: 0.3242
- Array Heatmap value (peptide array binding signal) [4]: 0.502
- Array Heatmap value (peptide array binding signal) [5]: 0.3477
- Array Heatmap value (peptide array binding signal) [6]: 0.4417
- Array Heatmap value (peptide array binding signal) [7]: 0.3401
- Array Heatmap value (peptide array binding signal) [8]: 0.4055
- Array Heatmap value (peptide array binding signal) [9]: 0.5954
- Array Heatmap value (peptide array binding signal) [10]: 0.3416
- Array Heatmap value (peptide array binding signal) [11]: 0.3531
- Array Heatmap value (peptide array binding signal) [12]: 0.7634
- Array Heatmap value (peptide array binding signal) [13]: 0.6265
- Array Heatmap value (peptide array binding signal) [14]: 0.4418
- Array Heatmap value (peptide array binding signal) [15]: 0.4528
- Array Heatmap value (peptide array binding signal) [16]: 0.2374
- Array Heatmap value (peptide array binding signal) [17]: 0.4585
- Array Heatmap value (peptide array binding signal) [18]: 0.6169
- Array Heatmap value (peptide array binding signal) [19]: 0.4061
- Array Heatmap value (peptide array binding signal) [20]: 0.6011
- Array Heatmap value (peptide array binding signal) [21]: 0.5294
- Array Heatmap value (peptide array binding signal) [22]: 0.2475
- Array Heatmap value (peptide array binding signal) [23]: 0.5209
- Array Heatmap value (peptide array binding signal) [24]: 0.5234
- Array Heatmap value (peptide array binding signal) [25]: 0.3352
- Array Heatmap value (peptide array binding signal) [26]: 0.6358
- Array Heatmap value (peptide array binding signal) [27]: 0.4082
- Array Heatmap value (peptide array binding signal) [28]: 0.5527
- Array Heatmap value (peptide array binding signal) [29]: 0.4618
- Array Heatmap value (peptide array binding signal) [30]: 0.6572
- Array Heatmap value (peptide array binding signal) [31]: 0.4472

Substance: H2AS1p + K5ac + K9ac + K13ac + K15ac: H2A 1-17 ([pS]GRGK(Ac)QGGK(Ac)ARAK(Ac)AK(Ac)TR; UniProt P0C0S8 2-18, looked up, fragment)
- Array Heatmap value (peptide array binding signal) [1]: 0.5891
- Array Heatmap value (peptide array binding signal) [2]: 0.4636
- Array Heatmap value (peptide array binding signal) [3]: 0.4384
- Array Heatmap value (peptide array binding signal) [4]: 0.5008
- Array Heatmap value (peptide array binding signal) [5]: 0.3673
- Array Heatmap value (peptide array binding signal) [6]: 0.4797
- Array Heatmap value (peptide array binding signal) [7]: 0.3496
- Array Heatmap value (peptide array binding signal) [8]: 0.391
- Array Heatmap value (peptide array binding signal) [9]: 0.5905
- Array Heatmap value (peptide array binding signal) [10]: 0.3406
- Array Heatmap value (peptide array binding signal) [11]: 0.4032
- Array Heatmap value (peptide array binding signal) [12]: 0.7774
- Array Heatmap value (peptide array binding signal) [13]: 0.6538
- Array Heatmap value (peptide array binding signal) [14]: 0.5241
- Array Heatmap value (peptide array binding signal) [15]: 0.4609
- Array Heatmap value (peptide array binding signal) [16]: 0.2429
- Array Heatmap value (peptide array binding signal) [17]: 0.4549
- Array Heatmap value (peptide array binding signal) [18]: 0.6038
- Array Heatmap value (peptide array binding signal) [19]: 0.5117
- Array Heatmap value (peptide array binding signal) [20]: 0.6036
- Array Heatmap value (peptide array binding signal) [21]: 0.5205
- Array Heatmap value (peptide array binding signal) [22]: 0.2828
- Array Heatmap value (peptide array binding signal) [23]: 0.5428
- Array Heatmap value (peptide array binding signal) [24]: 0.4023
- Array Heatmap value (peptide array binding signal) [25]: 0.3555
- Array Heatmap value (peptide array binding signal) [26]: 0.5729
- Array Heatmap value (peptide array binding signal) [27]: 0.4027
- Array Heatmap value (peptide array binding signal) [28]: 0.519
- Array Heatmap value (peptide array binding signal) [29]: 0.5168
- Array Heatmap value (peptide array binding signal) [30]: 0.6263
- Array Heatmap value (peptide array binding signal) [31]: 0.482

Source: article PMC6979384, “Characterization of the plant homeodomain (PHD) reader family for their histone tail interactions” (Epigenetics & Chromatin, 2020)
